Laboratory results: publication PMC10224356, “Trisubstituted 1,3,5-Triazines as Histamine H4 Receptor Antagonists with Promising Activity In Vivo” (Molecules, 2023)
“Also recorded” adds a separate entry of the source.

Legend:
SH-SY5Y cells = experiment: Toxicity evaluation, MTS assay in SH-SY5Y cells; assay type: cell-based, human
Text: (§1) Toxic substances can affect the cells. Early in the research process, it is crucial to determine whether obtained compounds can induce such effects. From our series of compounds, compound 6 was selected for toxicity evaluation. MTS assay was used to test toxicity on HepG2 and SH-SY5Y cell lines. HepG2 cells closely reflect the human liver cell model whereas SH-SY5Y neuroblastoma cells are used in models of neurodegenerative diseases (especially Parkinson’s disease) to study the cellular and molecular factors that lead to these disorders.
(§2) Compound 6, at concentrations ranging from 0.78 µM to 50 µM, was incubated with the respective cell lines for 48 h (HepG2) or 24 h (SH-SY5Y). Then, MTS reagent was added and absorbances at 490 nm were read after 1 h. […] The reduction in SH-SY5Y cell viability (Figure 6B) of an average of 4–12% was observed over the range of concentrations.
(§3) The hepatoma cell line HepG2 (ATCC® HB-8065TM) and SH-SY5Y CRL-2266 neuroblastoma cell line were used to evaluate the toxicity of tested compounds. Tests were conducted as described previously. CellTiter 96® Aqueous Non-Radioactive Cell Proliferation Assay was purchased from Promega (Madison, WI, USA). Compounds were tested at 7 concentrations (0.78, 1.56, 3.125, 6.25, 12.5, 25 and 50 µM). Cell viability was determined after incubation with compounds for […]. Each experiment was performed twice in triplicate.

hH4R [1] = target: T1, hH4R (Homo sapiens, UniProt Q9H3N8); experiment: cAMP accumulation assay (LANCE Ultra cAMP, CHO-K1 cells stably expressing hH4R); assay type: cell-based; parameters: expressed in transfected cells
Procedure: Intrinsic activity via the Gα subunit was measured using a LANCE Ultra cAMP detection kit and CHO-K1 cells stably expressing hH4R. Adenyl cyclase was stimulated by forskolin (10 µM).
Intrinsic activity in G protein-dependent pathway was measured with homogenous TR-FRET immunoassay, using LANCE Ultra cAMP kit and CHO-K1 H4R cell line or γ-irradiated recombinant CHO-K1 H4R cells (all from PerkinElmer). […] If the CHO-K1 H4R cell line was used it had been cultivated in DMEM/F12 10% FBS 400 µg/mL geneticin and passaged three times a week. […] The antagonist activity was measured in a white, opaque, 384-well microplate (PerkinElmer) with a total volume of 20 µL. […] After incubation, 5 µL of europium chelate-labelled cAMP tracer and 5 µl of ULight-labelled anti-cAMP mAb working solutions were added, mixed and incubated for 1 h. TR-FRET signal was read using a microplate reader (PerkinElmer, Waltham, MA, USA).

hH4R [2] = target: T1, hH4R; experiment: β-arrestin recruitment assay (LiveBLAzer, Tango-H4-bla U2OS cells); assay type: cell-based; parameters: expressed in transfected cells; host or cells: Tango-H4-bla U2OS cells
Procedure: Compounds were tested using LiveBLAzer^TM assay and Tango-H4-bla U2OS cells, allowing the estimation of the percentage of β-arrestin recruitment in response to tested treatments.
All used media and reagents except DMSO and tested compounds were purchased from ThermoFisher Scientific, Waltham, MA, USA. DMSO was from CarlRoth (Karlsruhe, Germany) and histamine was from Sigma Aldrich (Darmstadt, Germany). […] The day before the experiment cells were collected from the culture flask with trypsin and seeded in 384 well black-wall, clear-bottom plate (PerkinElmer, Waltham, MA, USA) in concentration 10,000 cells/well in FreeStyle medium. After 24 h of incubation, the cells were checked under the microscope and the dilutions of tested compounds were prepared and added to the wells. In agonist mode compounds were added to the wells and plates were placed in the incubator (HERAcell240, Heraeus, Hanau, Germany) for 16 h. In antagonist mode, first, the compounds were added to the wells, plates were incubated for 30 min, then histamine solution (corresponding to EC80—500 nM) was added and plates were put in the incubator for 16 h. After this time β-lactamase substrate mixture was prepared and added to wells (8 µL/well). Cells were incubated for 2 h at room temperature in the dark then the signal was read using an EnSpire microplate reader (PerkinElmer, Waltham, MA, USA). Drawing of dose-dependent curves and IC50 calculation for compounds were made using GraphPad Prism 6 (GraphPad Software, San Diego, CA, USA).

HepG2 cells = experiment: Toxicity evaluation, MTS assay in HepG2 cells; assay type: cell-based, human
Text: as §1, §2
as §3, with “Each experiment was performed twice in triplicate.” left out

hH4R [3] = target: T1, hH4R; experiment: cAMP accumulation assay (LANCE Ultra cAMP, CHO-K1 cells stably expressing hH4R); assay type: cell-based; parameters: expressed in transfected cells; conditions: antagonist mode
mice = experiment: Formalin test; assay type: in vivo; conditions: for Paw licking/biting, late phase of formalin test, % of the control group: 15–30 min after formalin
Procedure: The blockade of H4Rs expressed in inflammatory cells results in anti-inflammatory and analgesic effects. On the contrary, the activation of neuronal H4Rs leads to analgesia.
The procedure used was essentially the same as that described previously. […] The total time (in s) spent on licking the injected paw during periods of 0–5 min (early phase, neurogenic) and 15–30 min (late phase, inflammatory) was measured and was considered as an indicator of nociceptive behaviour. Before formalin injection different groups of mice were treated i.p. with vehicle (10 mL/kg, negative control) and the dose–response of the investigated compound.

[4] = even at the highest concentration (50 µM)

IC50 (hH4R [1]; antagonist mode, forskolin 10 µM, histamine 140 nM, CHO-K1 hH4R cells, read-out: cAMP hH4R IC50 ± SEM): 10 ± 2 nM | Kb (hH4R [1]; calculated from IC50 by Leff–Dougall variant of Cheng–Prusoff equation, read-out: pKb cAMP ± SEM (converted)): 3.55 nM | IC50 (hH4R [2]; antagonist mode, histamine 500 nM (EC80), Tango-H4-bla U2OS cells, read-out: β-arrestin hH4R IC50 ± SEM): 10 ± 1 nM | β-arrestin hH4R % of max. Antagonist Activity at 10 µM (hH4R [2]; at 10 µM, antagonist mode): 101% | Kb (hH4R [2]; calculated from IC50 by Leff–Dougall variant of Cheng–Prusoff equation, read-out: pKb β-arrestin ± SEM (converted)): 1.62 nM | cAMP hH4R % of max. Antagonist Activity at 10 µM (hH4R [3]): 100%
SMILES: CN1CCN(c2nc(N)nc(CC3CCCC3)n2)CC1 [Compound 6, 4-(Cyclopentylmethyl)-6-(4-methylpiperazin-1-yl)-1,3,5-triazin-2-amine]
Reduction in SH-SY5Y cell viability, average over the range of concentrations (SH-SY5Y cells; 0.78–50 µM): 4–12% | Toxicity in SH-SY5Y cells (MTS) (SH-SY5Y cells; 0.78–50 µM, 24 h incubation): no toxicity up to 50 µM | Reduction of SH-SY5Y cell viability (SH-SY5Y cells; [4]): ≤ 50% | Toxicity in HepG2 cells (MTS) (HepG2 cells; 0.78–50 µM, 48 h incubation): no toxicity up to 50 µM; also recorded: did not show significant toxicity in the tested concentration range (except for 6.25 µM concentration) | Reduction of HepG2 cell viability (HepG2 cells; [4]): ≤ 50% | Paw licking/biting, late phase of formalin test, % of the control group (mice; 50 mg/kg i.p.): 44.02 % of the control group | Paw licking/biting, late phase of formalin test, % of the control group (mice; 75 mg/kg i.p.): 56.62 % of the control group | Duration of nociceptive response, acute phase of formalin test (mice; i.p., 0–5 min after formalin): did not significantly affect
